The values that follow come from publication PMC8286840, “Identifying SARS-CoV-2 antiviral compounds by screening for small molecule inhibitors of Nsp3 papain-like protease” (Biochemical Journal, 2021).

Counter-ions that a name gives are not always drawn. Like-named read-outs stand apart in the source and are kept apart here. Where a SMILES comes first, the peptide text is derived from it. Bridges are numbered along the chain shown (N, C = ends).

The target in assay [1] is T1, SARS-CoV-2 PLpro (nsp3 1564–1878) (Severe acute respiratory syndrome coronavirus 2, UniProt P0DTD1). The experiment in a line: biochemical. As to conditions: high concentration screen, read-out: % of control remaining. More on the design: FRET-quenched peptide (Pro3) cleavage by PLpro, 10 min pre-incubation, slope over 20 min, normalised to no-compound control.
For assay [2], the target named is T1, SARS-CoV-2 PLpro (nsp3 1564–1878). The experiment in a line: biochemical. Further details: FRET-quenched peptide (Pro3) cleavage by PLpro, 10 min pre-incubation, slope over 20 min, normalised to no-compound control. The conditions noted are these: low concentration screen, read-out: % of control remaining.

`OCCC#Cc1nc(-c2ccc(F)cc2)c(-c2ccncc2)n1CCCc1ccccc1` [RWJ-67657]: the remaining activity at 3.75 µM in assay [1] (Well no.=2987) amounted to 91.7%. For the same compound, the remaining activity at 1.25 µM in assay [2] (Well no.=2987) stood at 94.7%.
Take `O=C1c2c(O)cc(O)cc2O[C@H](c2cc(O)c(O)c(O)c2)[C@H]1O` [(2R,3R)-3,5,7-trihydroxy-2-(3,4,5-trihydroxyphenyl)-2,3-dihydro-4H-chromen-4-one]: the remaining activity at 3.75 µM in assay [1] (Well no.=5388) is 111%. Also, the remaining activity at 1.25 µM in assay [2] (Well no.=5388) turned out to be 106%.
Regarding `CC(=O)N[C@H]1CN2CC[C@H](O)[C@@H]2[C@@H](O)[C@@H]1O` [6-Acetamido-6-deoxy-castanospermine], the remaining activity at 3.75 µM in assay [1] (Well no.=3294) amounted to 99.3%. The remaining activity at 1.25 µM in assay [2] (Well no.=3294) amounted to 97.4%.
Consider `C=C1[C@H]2C[C@@]3([C@@H]1O)[C@@H](CC2=O)[C@]12[C@@H]4C[C@H]3[C@H]1N(CC)C[C@]4(C)CC[C@@H]2O` [Songorine], for which, in assay [1] (Well no.=3203), the remaining activity at 3.75 µM was 102%. The remaining activity at 1.25 µM in assay [2] (Well no.=3203) stood at 102%.
On to `Cc1c(COc2cc(OCc3cccc(C#N)c3)c(CN3C[C@H](O)C[C@@H]3C(=O)O)cc2Cl)cccc1-c1ccc2c(c1)OCCO2` [BMS-1166], for which the remaining activity at 3.75 µM in assay [1] (Well no.=8310) was 96.4%. In assay [2] (Well no.=8310), the remaining activity at 1.25 µM turned out to be 96.7%.
For the compound `CCOC(=O)[C@H](Cc1ccc([N+](=O)[O-])cc1)NC(=O)c1ccccc1` [SB 297006], the remaining activity at 3.75 µM in assay [1] (Well no.=5801) is 98.4%. Also, in assay [2] (Well no.=5801), the remaining activity at 1.25 µM was 98.7%.
Regarding `Cn1cc(-c2ccc3nnc(Sc4ccc5ncccc5c4)n3n2)cn1` [SGX-523], in assay [1] (Well no.=4665), the remaining activity at 3.75 µM is 106%. In addition, the remaining activity at 1.25 µM in assay [2] (Well no.=4665) is 104%.
For `O=C(Nc1ccc(Cl)cc1)C1CCCN(C(=O)c2cccc(-c3ccco3)c2)C1` (stereo not shown) [CCG-203971], the remaining activity at 3.75 µM in assay [1] (Well no.=6005) is 101%. Further, in assay [2] (Well no.=6005), the remaining activity at 1.25 µM was determined as 103%.
With `C[C@@H]1CN(Cc2ccc(F)cc2)[C@@H](C)CN1C(=O)c1cc2c(C(=O)C(=O)N(C)C)cn(C)c2cc1Cl` [Talmapimod], the remaining activity at 3.75 µM in assay [1] (Well no.=7304) came out at 91.9%. The remaining activity at 1.25 µM in assay [2] (Well no.=7304) came to 99.8%.
On to `Cn1nc2c3c(cccc31)C(=O)c1ccccc1-2` [JNK Inhibitor, Negative Control], for which the remaining activity at 3.75 µM in assay [1] (Well no.=2514) was found to be 92.4%. For the same compound, the remaining activity at 1.25 µM in assay [2] (Well no.=2514) is 91%.
With `C/C(=C\c1csc(C)n1)[C@@H]1C[C@@H]2O[C@@H]2CCC[C@H](C)[C@H](O)[C@@H](C)C(=O)C(C)(C)[C@@H](O)CC(=O)O1` [Epothilone A], in assay [1] (Well no.=5157), the remaining activity at 3.75 µM is 93.4%. Further, the remaining activity at 1.25 µM in assay [2] (Well no.=5157) was found to be 95.3%.
As to `COc1nccnc1NS(=O)(=O)c1cccc(Cl)c1Cl` [AZD2098], the remaining activity at 3.75 µM in assay [1] (Well no.=8225) amounted to 98.6%. In assay [2] (Well no.=8225), the remaining activity at 1.25 µM is 102%.
Consider `COC1CCN(C(=O)c2cc(Cc3n[nH]c(=O)c4ccccc34)ccc2F)CC1` [AZD2461], for which the remaining activity at 3.75 µM in assay [1] (Well no.=5172) stood at 102%. Further, in assay [2] (Well no.=5172), the remaining activity at 1.25 µM came out at 105%.
For `CN1c2c([nH]c(N)nc2=O)NC[C@@H]1CNc1ccc(C(=O)N[C@@H](CCC(=O)O)C(=O)O)cc1` [Levomefolic acid], the remaining activity at 3.75 µM in assay [1] (Well no.=7940) was determined as 101%. The remaining activity at 1.25 µM in assay [2] (Well no.=7940) was determined as 101%.
In the case of `NS(=O)(=O)c1cc2c(cc1Cl)NC(C(Cl)Cl)NS2(=O)=O` (stereo not shown) [Trichloromethiazide], the remaining activity at 3.75 µM in assay [1] (Well no.=2072) is 100%. Besides, the remaining activity at 1.25 µM in assay [2] (Well no.=2072) is 101%.
As for `COc1cc2c(cc1OC)[C@H]1[C@@H](C)c3ccc(OC)c(OC)c3CN1CC2` [Corydaline], the remaining activity at 3.75 µM in assay [1] (Well no.=3252) worked out at 102%. In addition, in assay [2] (Well no.=3252), the remaining activity at 1.25 µM worked out at 101%.
As to `CCCCCCCCCCCCCC/C=C\CCCC(=O)O` [5(Z)-Eicosenoic acid], the remaining activity at 3.75 µM in assay [1] (Well no.=4408) is 92.5%. The remaining activity at 1.25 µM in assay [2] (Well no.=4408) was 101%.
For `C/C=C/C/C=C/CCC(=O)[C@H]1O[C@H]1C(N)=O` [Cerulenin], in assay [1] (Well no.=3137), the remaining activity at 3.75 µM worked out at 102%. In addition, the remaining activity at 1.25 µM in assay [2] (Well no.=3137) stood at 93%.
`Nc1nc(NC2CC2)c2ncn([C@H]3C=C[C@@H](CO)C3)c2n1` [Abacavir sulfate]: the remaining activity at 3.75 µM in assay [1] (Well no.=5326) amounted to 95.9%. Moreover, in assay [2] (Well no.=5326), the remaining activity at 1.25 µM stood at 97.2%.
As for `C[N+](C)(C)CCCCCC[N+](C)(C)C` [Hexamethonium dichloride], the remaining activity at 3.75 µM in assay [1] (Well no.=656) amounted to 89.9%. Besides, in assay [2] (Well no.=656), the remaining activity at 1.25 µM came to 90.7%.
Consider `CC(C)NCCCn1c(Sc2cc3c(cc2I)OCO3)nc2c(N)ncnc21` [PU-H71], for which, in assay [1] (Well no.=8772), the remaining activity at 3.75 µM is 95.7%. Also, the remaining activity at 1.25 µM in assay [2] (Well no.=8772) worked out at 98.2%.
In the case of `CCS(=O)(=O)c1ccc(CC(=O)Nc2cc(Cl)c(-c3ccccc3OC(F)(F)F)c(Cl)c2)cc1` [GSK805], the remaining activity at 3.75 µM in assay [1] (Well no.=8657) is 94.7%. Also, the remaining activity at 1.25 µM in assay [2] (Well no.=8657) worked out at 103%.
As to `Nc1[nH]nc2nc3ccccc3nc12` [Cdk1/5 Inhibitor], in assay [1] (Well no.=2370), the remaining activity at 3.75 µM was 98.7%. The remaining activity at 1.25 µM in assay [2] (Well no.=2370) is 96.8%.
Regarding `NCCCC[C@H](NC(=O)[C@@H]1CCCN1C(=O)[C@@H]1CSSC[C@H](NC(=O)CNC(=O)CNC(=O)CN)C(=O)N[C@@H](Cc2ccc(O)cc2)C(=O)N[C@@H](Cc2ccccc2)C(=O)N[C@@H](CCC(N)=O)C(=O)N[C@@H](CC(N)=O)C(=O)N1)C(=O)NCC(N)=O` [Terlipressin] (H-GGGCYFQNCPKG-NH2; disulfide 4-9), in assay [1] (Well no.=8103), the remaining activity at 3.75 µM came to 104%. Further, the remaining activity at 1.25 µM in assay [2] (Well no.=8103) was found to be 106%.
As for `Oc1cc(Cl)ccc1Oc1ccc(Cl)cc1Cl` [Triclosan], in assay [1] (Well no.=8252), the remaining activity at 3.75 µM turned out to be 98.2%. For the same compound, in assay [2] (Well no.=8252), the remaining activity at 1.25 µM is 101%.
`CC(C(=O)O)c1ccc2c(c1)Cc1cccnc1O2` (stereo not shown) [Pranoprofen]: the remaining activity at 3.75 µM in assay [1] (Well no.=2139) was 99.8%. Besides, in assay [2] (Well no.=2139), the remaining activity at 1.25 µM is 98.7%.
As for `CCN(CC)CCOC(=O)C(Cc1cccc2ccccc12)CC1CCCO1` (stereo not shown) [Naftidrofuryl (oxalate)], the remaining activity at 3.75 µM in assay [1] (Well no.=7050) was found to be 93.7%. Moreover, the remaining activity at 1.25 µM in assay [2] (Well no.=7050) worked out at 98%.
For `COc1ccccc1N1CCN(CCN2C(=O)CC3(CCCC3)CC2=O)CC1` [BMY 7378 dihydrochloride], the remaining activity at 3.75 µM in assay [1] (Well no.=229) came to 100%. The remaining activity at 1.25 µM in assay [2] (Well no.=229) turned out to be 98.4%.
Take `O=C(O)Cc1ccccc1Nc1c(Cl)cccc1Cl` [Diclofenac]: the remaining activity at 3.75 µM in assay [1] (Well no.=1978) was 102%. Moreover, the remaining activity at 1.25 µM in assay [2] (Well no.=1978) was found to be 102%.
For the compound `Cc1nnc(NC(=O)c2nc(S(=O)(=O)Cc3ccc(F)cc3)ncc2Cl)s1` [PK11007], in assay [1] (Well no.=6834), the remaining activity at 3.75 µM was 87.8%. Also, the remaining activity at 1.25 µM in assay [2] (Well no.=6834) turned out to be 86.8%.
`COc1ccnc(C[S+]([O-])c2nc3cc(OC(F)F)ccc3[nH]2)c1OC` (stereo not shown) [Pantoprazole]: in assay [1] (Well no.=2091), the remaining activity at 3.75 µM was 99.9%. Also, the remaining activity at 1.25 µM in assay [2] (Well no.=2091) is 101%.
On to `O=C(O)C[C@H](O)C(=O)O` [(S)-2-Hydroxysuccinic acid], for which the remaining activity at 3.75 µM in assay [1] (Well no.=6825) stood at 100%. Also, in assay [2] (Well no.=6825), the remaining activity at 1.25 µM was found to be 105%.
